Measurements from US10239832B2, “N-(1-hydroxy-3-(pyrrolidinyl)propan-2-yl)pyrrolidine-3-carboxamide derivatives as glucosylceramide synthase inhibitors” (BIOMARIN PHARMACEUTICAL INC., priority 2013, dated 2019).

These molecules were tested against T1, GCS (Canis lupus familiaris, UniProt A0A8I3MXG6) (assay: GCS enzymatic assay (MDCK cell lysate, NBD-ceramide to glucosylceramide, LC/MS)). Conditions: Table 2; class symbols A, B, C; the table does not say which of the assays; read-out: Data Range (IC50 values).
T1 construct: endogenous in cells; host or cells: MDCK (Madin-Darby canine kidney) cells, whole-cell lysate
T1 sequence (A0A8I3MXG6 1-394): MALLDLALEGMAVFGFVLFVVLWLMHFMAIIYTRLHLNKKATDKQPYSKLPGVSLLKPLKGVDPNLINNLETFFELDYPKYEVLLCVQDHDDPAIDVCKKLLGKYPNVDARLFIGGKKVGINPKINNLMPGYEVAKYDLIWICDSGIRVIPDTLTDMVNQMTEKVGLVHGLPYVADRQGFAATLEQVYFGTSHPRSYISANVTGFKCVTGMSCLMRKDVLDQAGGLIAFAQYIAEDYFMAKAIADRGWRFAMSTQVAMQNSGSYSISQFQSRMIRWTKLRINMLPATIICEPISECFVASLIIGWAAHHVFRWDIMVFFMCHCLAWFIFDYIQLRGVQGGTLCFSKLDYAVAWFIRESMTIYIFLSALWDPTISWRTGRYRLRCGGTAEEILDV
Type: biochemical, canine
Outline: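 IC50 or percent inhibition came from LC/MS/MS (ESI+, MRM) of NBD-ceramide and glucosylceramide, with tolbutamide as internal standard. The reaction used MDCK (canine) cell lysate as the enzyme source and was ended with acetonitrile. Mock wells received 0.1% DMSO.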
Molecule `O=C(N[C@H](CN1CCC1)[C@H](O)c1ccc2c(c1)OCCO2)[C@@H]1CCN(c2ccc(Cl)cc2)C1` [Compound 78, (R)-N-((1R,2R)-3-(azetidin-1-yl)-1-(2,3-dihydrobenzo[b][1,4]dioxin-6-yl)-1-hydroxypropan-2-yl)-1-(4-chlorophenyl)pyrrolidine-3-carboxamide] has an IC50 of 1 to 30 nM.
`O=C(N[C@H](CN1CCCC1)[C@H](O)c1cc(F)c2c(c1)OCCO2)[C@@]1(O)CCN(c2ccc(Cl)cc2)C1` [Compound 154C, (R)-1-(4-chlorophenyl)-N-((1R,2R)-1-(8-fluoro-2,3-dihydrobenzo[b][1,4]dioxin-6-yl)-1-hydroxy-3-(pyrrolidin-1-yl)propan-2-yl)-3-hydroxypyrrolidine-3-carboxamide] gave an IC50 of 100 to 1000 nM.
With `O=C(N[C@H](CN1CCCC1)[C@H](O)c1cc(F)c2c(c1)OCCO2)[C@@H]1CCN(c2ccc(Cl)cc2)C1` [Compound 2, (R)-1-(4-chlorophenyl)-N-((1R,2R)-1-(8-fluoro-2,3-dihydrobenzo[b][1,4]dioxin-6-yl)-1-hydroxy-3-(pyrrolidin-1-yl)propan-2-yl)pyrrolidine-3-carboxamide] the IC50 was 1 to 30 nM.
In the case of `O=C(N[C@H](CN1CCCC1)[C@H](O)c1ccc(OC2CC2)cc1)[C@@H]1CCN(c2ccccc2)C1` [Compound 149, (R)-N-((1R,2R)-1-(4-cyclopropoxyphenyl)-1-hydroxy-3-(pyrrolidin-1-yl)propan-2-yl)-1-phenylpyrrolidine-3-carboxamide], the IC50 is reported as 1 to 30 nM.
In the case of `O=C(N[C@H](CN1CCCC1)[C@H](O)c1ccc(OC2CC2)cc1)[C@@H]1CCN(c2ccc3ccsc3c2)C1` [Compound 157, (R)-1-(benzo[b]thiophen-6-yl)-N-((1R,2R)-1-(4-cyclopropoxyphenyl)-1-hydroxy-3-(pyrrolidin-1-yl)propan-2-yl)pyrrolidine-3-carboxamide], the IC50 is reported as 1 to 30 nM.

Same assay, conditions: Table 2; class symbols D, E, F, NA (not active); the table does not say which of the assays
For `O=C(N[C@H](CN1CCCC1)[C@H](O)c1ccc2c(c1)OCCO2)C1CCN(c2ccccn2)C1` (stereo partly drawn) [Compound 22C, N-((1R,2R)-1-(2,3-dihydrobenzo[b][1,4]dioxin-6-yl)-1-hydroxy-3-(pyrrolidin-1-yl)propan-2-yl)-1-(pyridin-2-yl)pyrrolidine-3-carboxamide], the “Data Range (% inhibition)” value was “F (1-49% (or less than 50%))”.
In the case of `O=C(N[C@H](CN1CCCC1)[C@H](O)c1ccc2c(c1)OCCO2)C1CCN(C2CCCCC2)C1` (stereo partly drawn) [Compound 26, 1-cyclohexyl-N-((1R,2R)-1-(2,3-dihydrobenzo[b][1,4]dioxin-6-yl)-1-hydroxy-3-(pyrrolidin-1-yl)propan-2-yl)pyrrolidine-3-carboxamide], the “Data Range (% inhibition)” value is reported as “NA (not active—a negative value was generated for % inhibition)”.
`CC(C)Oc1ccc(C(O)[C@@H](CN2CCCC2)NC(=O)[C@H]2CCN(c3ccc(F)cc3)C2)cn1` (stereo in doubt) [Compound 31B, (S)-1-(4-fluorophenyl)-N-((1S,2R)-1-hydroxy-1-(6-isopropoxypyridin-3-yl)-3-(pyrrolidin-1-yl)propan-2-yl)pyrrolidine-3-carboxamide] was tested, and the “Data Range (% inhibition)” value was “E (50-74% (or less than 75%))”.
With `O=C(N[C@H](CN1CCCC1)[C@H](O)c1cc(F)c2c(c1)OCCO2)[C@H]1CCN(c2ccc3ccsc3c2)C1` [Compound 97C, (S)-1-(benzo[b]thiophen-6-yl)-N-((1R,2R)-1-(8-fluoro-2,3-dihydrobenzo[b][1,4]dioxin-6-yl)-1-hydroxy-3-(pyrrolidin-1-yl)propan-2-yl)pyrrolidine-3-carboxamide] the “Data Range (% inhibition)” value was “E (50-74% (or less than 75%))”.
In the case of `O=C(N[C@H](CN1CCCC1)[C@H](O)c1ccc2c(c1)OCCO2)[C@H]1CCN(Cc2ccc(Cl)cc2)C1` [Compound 15D, (S)-1-(4-chlorobenzyl)-N-((1R,2R)-1-(2,3-dihydrobenzo[b][1,4]dioxin-6-yl)-1-hydroxy-3-(pyrrolidin-1-yl)propan-2-yl)pyrrolidine-3-carboxamide], the “Data Range (% inhibition)” value is reported as “F (1-49% (or less than 50%))”.
`O=C(N[C@H](CN1CCCC1)[C@H](O)c1ccc2c(c1)OCCO2)C1CCN(c2ccc(Cl)cc2Cl)C1` (stereo in doubt) [Compound 12D, (S)-1-(2,4-dichlorophenyl)-N-((1R,2R)-1-(2,3-dihydrobenzo[b][1,4]dioxin-6-yl)-1-hydroxy-3-(pyrrolidin-1-yl)propan-2-yl)pyrrolidine-3-carboxamide] was tested, and the “Data Range (% inhibition)” value was “F (1-49% (or less than 50%))”.
With `Cc1cc(N2CC[C@H](C(=O)N[C@H](CN3CCCC3)[C@H](O)c3ccc4c(c3)OCCO4)C2)cc(C)n1` [Compound 82E, (S)-N-((1R,2R)-1-(2,3-dihydrobenzo[b][1,4]dioxin-6-yl)-1-hydroxy-3-(pyrrolidin-1-yl)propan-2-yl)-1-(2,6-dimethylpyridin-4-yl)pyrrolidine-3-carboxamide] the “Data Range (% inhibition)” value was “NA (not active—a negative value was generated for % inhibition)”.
With `O=C(N[C@H](CN1CCCC1)[C@H](O)c1ccc2c(c1)OCCO2)[C@H]1CCN(c2ccc3cc(F)ccc3c2Cl)C1` [Compound 88D, (S)-1-(1-chloro-6-fluoronaphthalen-2-yl)-N-((1R,2R)-1-(2,3-dihydrobenzo[b][1,4]dioxin-6-yl)-1-hydroxy-3-(pyrrolidin-1-yl)propan-2-yl)pyrrolidine-3-carboxamide] the “Data Range (% inhibition)” value was “F (1-49% (or less than 50%))”.
With `O=C(N[C@H](CN1CCCC1)[C@H](O)c1ccc2c(c1)OCCO2)[C@@H]1CCN(c2ccc3ccsc3c2)C1` [Compound 53, (R)-1-(benzo[b]thiophen-6-yl)-N-((1R,2R)-1-(2,3-dihydrobenzo[b][1,4]dioxin-6-yl)-1-hydroxy-3-(pyrrolidin-1-yl)propan-2-yl)pyrrolidine-3-carboxamide] the “Data Range (% inhibition)” value was “E (50-74% (or less than 75%))”.
With `CC(C)Oc1ccc([C@@H](O)[C@@H](CN2CCCC2)NC(=O)[C@@H]2CCN(c3ccc(Cl)cc3)C2)cn1` [Compound 29, (R)-1-(4-chlorophenyl)-N-((1R,2R)-1-hydroxy-1-(6-isopropoxypyridin-3-yl)-3-(pyrrolidin-1-yl)propan-2-yl)pyrrolidine-3-carboxamide] the “Data Range (% inhibition)” value was “F (1-49% (or less than 50%))”.
With `O=C(N[C@H](CN1CCCC1)[C@H](O)c1ccc2c(c1)OCCO2)[C@@H]1CCN(Cc2ccc(Cl)cc2)C1` [Compound 15, (R)-1-(4-chlorobenzyl)-N-((1R,2R)-1-(2,3-dihydrobenzo[b][1,4]dioxin-6-yl)-1-hydroxy-3-(pyrrolidin-1-yl)propan-2-yl)pyrrolidine-3-carboxamide] the “Data Range (% inhibition)” value was “F (1-49% (or less than 50%))”.
With `O=C(N[C@H](CN1CCCC1)[C@H](O)c1ccc(OC2CC2)c(Cl)c1)[C@@H]1CCN(c2ccc3c(c2)CCCC3)C1` [Compound 98, (R)-N-((1R,2R)-1-(3-chloro-4-cyclopropoxyphenyl)-1-hydroxy-3-(pyrrolidin-1-yl)propan-2-yl)-1-(5,6,7,8-tetrahydronaphthalen-2-yl)pyrrolidine-3-carboxamide] the “Data Range (% inhibition)” value was “D (75-100%)”.
In the case of `O=C(N[C@H](CN1CCCC1)[C@H](O)c1ccc2c(c1)OCCO2)C1CCN(c2ccnc(OC3CC3)c2)C1` (stereo partly drawn) [Compound 56D, 1-(2-cyclopropoxypyridin-4-yl)-N-((1R,2R)-1-(2,3-dihydrobenzo[b][1,4]dioxin-6-yl)-1-hydroxy-3-(pyrrolidin-1-yl)propan-2-yl)pyrrolidine-3-carboxamide], the “Data Range (% inhibition)” value is reported as “F (1-49% (or less than 50%))”.
